Measured values: patent US20250188092A1, “RIFAMYCIN ANALOGS” (THE REGENTS OF THE UNIVERSITY OF MICHIGAN, priority 2021, published 2025)
Converted amounts (≈) assume the structure as drawn. “And” between values parts separate entries of the source, which are not always exact repeats. Equal entries are not always repeated. Where two headings read alike, the source gives them in different places.

Assays:
[1] = format: in vivo, BALB/c mice; conditions: Day 1, Five Day Study, 4 hr
[2] = format: in vivo, BALB/c mice
Method: For i.v. dosing, the vehicle DMSO/PEG-400/PBS (1×) (5/60/35) was used. Female ˜20 g BALB/c mice (7-9 weeks old) were used in the study. Three mice were used for each set of conditions. […] Plasma concentrations were determined over 24 hrs in the single day study and on days 1 and 5 in the 5 day study. Lung exposure was also determined in the 1 day study at 24 hrs post dosing and on day 5 of the 5 day study at 4 hrs and 24 hrs post dosing. Compound concentrations were determined by reverse phase HPLC-MS against a standard curve.

[3] = target: T1, E. coli WT RNAP (Escherichia coli, UniProt P0A8V2); test: biochemical
T1 construct: made in house
T1 sequence (P0A8V2 whole entry): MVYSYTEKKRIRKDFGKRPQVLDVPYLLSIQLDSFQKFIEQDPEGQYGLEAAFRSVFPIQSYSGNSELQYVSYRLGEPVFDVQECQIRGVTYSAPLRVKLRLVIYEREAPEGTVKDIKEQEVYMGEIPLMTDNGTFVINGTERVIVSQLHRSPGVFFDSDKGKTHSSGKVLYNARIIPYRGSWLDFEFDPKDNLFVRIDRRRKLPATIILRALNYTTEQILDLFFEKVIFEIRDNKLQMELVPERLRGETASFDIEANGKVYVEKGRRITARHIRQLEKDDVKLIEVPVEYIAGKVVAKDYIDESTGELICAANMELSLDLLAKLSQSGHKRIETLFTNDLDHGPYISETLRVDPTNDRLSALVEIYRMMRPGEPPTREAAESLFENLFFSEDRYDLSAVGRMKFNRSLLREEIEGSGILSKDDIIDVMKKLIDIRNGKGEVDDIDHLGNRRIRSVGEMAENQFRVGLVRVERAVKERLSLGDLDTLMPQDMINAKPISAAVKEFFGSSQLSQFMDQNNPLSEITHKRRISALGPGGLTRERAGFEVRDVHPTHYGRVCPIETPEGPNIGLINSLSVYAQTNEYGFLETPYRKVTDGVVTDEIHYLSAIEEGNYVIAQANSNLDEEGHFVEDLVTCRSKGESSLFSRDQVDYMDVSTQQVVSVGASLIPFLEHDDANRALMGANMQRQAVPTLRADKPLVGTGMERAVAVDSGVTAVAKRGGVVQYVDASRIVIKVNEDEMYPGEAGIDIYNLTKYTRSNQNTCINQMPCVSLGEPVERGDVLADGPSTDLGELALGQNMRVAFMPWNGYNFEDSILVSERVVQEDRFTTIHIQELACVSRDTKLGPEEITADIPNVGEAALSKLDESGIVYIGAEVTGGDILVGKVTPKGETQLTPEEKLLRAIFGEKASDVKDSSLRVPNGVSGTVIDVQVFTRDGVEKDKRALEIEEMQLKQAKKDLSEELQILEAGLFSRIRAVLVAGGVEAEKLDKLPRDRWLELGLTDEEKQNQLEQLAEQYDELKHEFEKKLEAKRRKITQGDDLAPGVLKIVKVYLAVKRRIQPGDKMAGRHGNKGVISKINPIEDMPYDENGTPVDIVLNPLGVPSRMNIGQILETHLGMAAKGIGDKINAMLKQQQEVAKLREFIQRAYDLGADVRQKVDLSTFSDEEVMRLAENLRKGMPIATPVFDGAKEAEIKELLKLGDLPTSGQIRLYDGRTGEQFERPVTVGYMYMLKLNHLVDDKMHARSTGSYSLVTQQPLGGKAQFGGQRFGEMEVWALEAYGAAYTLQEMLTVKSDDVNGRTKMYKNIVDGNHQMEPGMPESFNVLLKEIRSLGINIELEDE
T1 sequence (P0A8T7 whole entry partner): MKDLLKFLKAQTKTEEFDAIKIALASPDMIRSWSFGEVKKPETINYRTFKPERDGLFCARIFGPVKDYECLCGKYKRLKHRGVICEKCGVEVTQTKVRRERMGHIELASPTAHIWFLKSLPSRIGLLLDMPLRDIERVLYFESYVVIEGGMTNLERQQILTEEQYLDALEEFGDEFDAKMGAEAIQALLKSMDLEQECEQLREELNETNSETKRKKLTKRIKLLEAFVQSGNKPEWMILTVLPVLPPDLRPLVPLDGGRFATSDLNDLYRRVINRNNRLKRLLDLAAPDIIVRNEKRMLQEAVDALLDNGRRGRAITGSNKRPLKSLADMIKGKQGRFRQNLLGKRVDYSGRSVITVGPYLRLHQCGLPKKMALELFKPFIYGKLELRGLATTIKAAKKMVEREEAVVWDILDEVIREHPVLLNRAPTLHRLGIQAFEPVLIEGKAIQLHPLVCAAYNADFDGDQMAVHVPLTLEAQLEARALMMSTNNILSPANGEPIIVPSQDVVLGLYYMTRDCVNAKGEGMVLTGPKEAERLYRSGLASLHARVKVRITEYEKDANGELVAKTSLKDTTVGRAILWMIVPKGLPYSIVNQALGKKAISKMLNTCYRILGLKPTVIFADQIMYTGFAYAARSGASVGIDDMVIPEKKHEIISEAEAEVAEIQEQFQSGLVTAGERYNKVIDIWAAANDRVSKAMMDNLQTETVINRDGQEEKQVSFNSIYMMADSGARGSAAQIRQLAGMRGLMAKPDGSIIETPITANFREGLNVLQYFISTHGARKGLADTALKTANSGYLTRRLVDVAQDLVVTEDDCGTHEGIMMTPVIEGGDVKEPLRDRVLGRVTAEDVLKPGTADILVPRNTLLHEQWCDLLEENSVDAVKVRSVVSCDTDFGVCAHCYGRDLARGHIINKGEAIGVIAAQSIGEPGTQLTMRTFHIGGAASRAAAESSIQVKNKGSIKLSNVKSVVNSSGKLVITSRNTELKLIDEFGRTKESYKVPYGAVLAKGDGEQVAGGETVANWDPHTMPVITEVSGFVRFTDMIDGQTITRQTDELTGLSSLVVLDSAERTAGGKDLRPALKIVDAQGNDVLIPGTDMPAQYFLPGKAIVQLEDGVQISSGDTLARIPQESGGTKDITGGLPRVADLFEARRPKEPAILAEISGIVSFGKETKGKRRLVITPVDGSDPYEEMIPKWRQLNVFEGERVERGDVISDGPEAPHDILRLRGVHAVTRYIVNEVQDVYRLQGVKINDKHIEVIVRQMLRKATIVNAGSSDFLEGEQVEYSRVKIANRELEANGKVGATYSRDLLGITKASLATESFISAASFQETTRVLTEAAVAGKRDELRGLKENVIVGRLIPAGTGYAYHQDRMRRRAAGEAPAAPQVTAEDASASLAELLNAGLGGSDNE
T1 sequence (P0A7Z4 whole entry partner): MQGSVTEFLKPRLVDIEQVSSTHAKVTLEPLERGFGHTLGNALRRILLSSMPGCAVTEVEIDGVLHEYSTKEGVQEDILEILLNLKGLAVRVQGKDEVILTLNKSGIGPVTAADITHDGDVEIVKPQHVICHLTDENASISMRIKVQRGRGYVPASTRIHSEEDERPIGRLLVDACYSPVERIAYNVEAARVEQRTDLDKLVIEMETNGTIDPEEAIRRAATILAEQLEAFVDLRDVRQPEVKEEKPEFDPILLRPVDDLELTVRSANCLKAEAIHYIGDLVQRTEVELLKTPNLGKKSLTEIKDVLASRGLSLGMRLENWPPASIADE
T1 sequence (P0A800 whole entry partner): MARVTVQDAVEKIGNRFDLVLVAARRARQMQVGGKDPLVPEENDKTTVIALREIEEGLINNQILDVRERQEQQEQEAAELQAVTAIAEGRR
T1 sequence (P00579 whole entry partner): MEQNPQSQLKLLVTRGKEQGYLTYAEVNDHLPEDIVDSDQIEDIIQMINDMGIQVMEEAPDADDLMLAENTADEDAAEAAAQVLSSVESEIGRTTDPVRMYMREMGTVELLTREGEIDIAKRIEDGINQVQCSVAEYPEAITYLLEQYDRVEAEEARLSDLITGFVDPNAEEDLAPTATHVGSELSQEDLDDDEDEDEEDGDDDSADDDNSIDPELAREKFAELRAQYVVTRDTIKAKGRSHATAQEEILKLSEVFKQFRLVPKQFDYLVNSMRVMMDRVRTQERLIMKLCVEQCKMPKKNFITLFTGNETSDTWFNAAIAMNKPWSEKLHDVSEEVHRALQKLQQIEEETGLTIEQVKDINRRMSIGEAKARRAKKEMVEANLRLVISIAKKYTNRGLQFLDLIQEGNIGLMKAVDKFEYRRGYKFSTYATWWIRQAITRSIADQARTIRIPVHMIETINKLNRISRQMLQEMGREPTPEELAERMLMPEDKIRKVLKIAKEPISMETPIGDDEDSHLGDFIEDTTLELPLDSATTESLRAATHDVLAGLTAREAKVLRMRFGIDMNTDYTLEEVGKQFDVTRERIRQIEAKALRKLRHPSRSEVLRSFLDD

[4] = Mouse acute efficacy study: mice weight and adverse effects
[5] = test system: MTB H37Rv ATCC 27294; test: MIC, microplate Alamar Blue assay (MABA); format: cell-based, Mycobacterium tuberculosis
[6] = test system: M. tuberculosis Erdman; test: Mouse acute efficacy study (lung CFU); format: in vivo, BALB/c mice; conditions: for CFU/Mouse: day 21
[7] = test system: VERO cells (ATCC CRL-81); test: Vero cell toxicity; format: cell-based; conditions: 72 hours exposure
Method: Cytotoxicity for a mammalian cell line was determined by exposing VERO cells (ATCC CRL-81) to serial dilutions of test compounds for 72 hours, followed by addition of resazurin and measurement of fluorescence after 4 hours incubation (Choules, et al., Antimnicrob. Agents Chemother. 2019, 63, e02204-02218).

[8] = test system: M. tuberculosis H37Rv; test: Minimum bactericidal concentration (MBC, CFU Assay); format: cell-based, Mycobacterium tuberculosis
[9] = test system: DPX2 cells
[10] = target: T2, human pregnane X receptor (hPXR) (Homo sapiens, UniProt O75469)
T2 sequence (O75469 1-434): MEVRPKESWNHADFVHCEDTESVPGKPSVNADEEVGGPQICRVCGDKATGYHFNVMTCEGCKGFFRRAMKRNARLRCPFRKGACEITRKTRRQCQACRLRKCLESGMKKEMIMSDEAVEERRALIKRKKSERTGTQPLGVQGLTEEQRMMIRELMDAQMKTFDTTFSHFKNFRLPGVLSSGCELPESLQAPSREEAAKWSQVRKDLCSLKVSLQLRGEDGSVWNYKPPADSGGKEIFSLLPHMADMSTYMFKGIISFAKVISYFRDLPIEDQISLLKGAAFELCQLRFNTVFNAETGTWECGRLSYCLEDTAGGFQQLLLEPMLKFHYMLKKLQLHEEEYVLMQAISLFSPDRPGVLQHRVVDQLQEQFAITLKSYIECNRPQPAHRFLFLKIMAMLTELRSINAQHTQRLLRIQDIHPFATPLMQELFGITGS

[11] = target: T3, WT MTB RNAP (Mycobacterium tuberculosis, UniProt P9WGY9); format: biochemical; conditions: lower limit of detection ~5 nM
T3 construct: made in house; host or cells: E. coli BL21(DE3)

[12] = test system: CYP 3A4; conditions: human, 24 h
[13] = test system: MTB H37Rv; conditions: cited from earlier work
[14] = human trials; cited from earlier work
[15] = target: hPXR (Homo sapiens, UniProt O75469); conditions: cited from earlier work
[16] = mouse, in vivo
[17] = 100 mg/kg QD, PEG-water vehicle
[18] = Mycobacterium tuberculosis, MTB H37Rv ATCC 27294, microplate Alamar Blue assay, lowest concentration giving ≥90% reduction in fluorescence

With `CO[C@H]1/C=C/O[C@@]2(C)Oc3c(C)c(O)c4c(=O)c(c5oc6cc(N7CCN(CC(C)C)CC7)cc(OCc7ccc(CN8CCOCC8)cc7)c6nc-5c4c3C2=O)NC(=O)/C(C)=C\C=C\[C@H](C)[C@H](O)[C@@H](C)[C@@H](O)[C@@H](C)[C@H](OC(C)=O)[C@@H]1C` [Compound 17e, (7S,9E,11S,12R,13S,14R,15R,16R,17S,18S,19E,21Z)-2,15,17-Trihydroxy-11-methoxy-3,7,12,14,16,18,22-heptamethyl-30-[4-(2-methylpropyl)piperazin-1-yl]-32-({4-[(morpholin-4-yl)methyl]phenyl}methoxy)-6,23,37-trioxo-8,27,38-trioxa-24,34-diazahexacyclo[23.11.1.1^4,7.0^5,36.0^26,35.0^28,33]octatriaconta-1(36)2,4,9,19,21,25,28,30,32,34-undecaen-13-yl acetate] the “Lung Homogenate concentration, Avg” value [1] was 248 ng/mL and 219 nM, the “Plasma concentration, Avg” value ([2]; Day 1, Five Day Study, 4 hr) was 360 ng/mL and 319 nM and the “Lung Homogenate concentration, Avg” value ([2]; Day 1, One Day Study, 24 hr) was 164 ng/mL and 145 nM. The “Plasma concentration, Avg” value ([2]; Day 1, One Day Study, 24 hr) was 327 ng/mL and 289 nM, the “Lung Homogenate concentration, Avg” value ([2]; Day 5, Five Day Study, 4 hr) was 323 ng/mL and 286 nM and the “Plasma concentration, Avg” value ([2]; Day 5, Five Day Study, 4 hr) was 688 ng/mL and 608 nM. The “Lung Homogenate concentration, Avg” value ([2]; Day 5, Five Day Study, 24 hr) was 41 ng/mL and 36 nM, the “Plasma concentration, Avg” value ([2]; Day 5, Five Day Study, 24 hr) was 121 ng/mL and 107 nM and the IC50 [3] was 14 nM. The “Mice Weight (g) Day 0” value [4, 17] was 20.4 g, the “Mice Weight (g) Day 31” value [4, 17] was 21.0 g and the “adverse effects noted in the mice” value ([4]; 3-week treatment period) was “no adverse effects”. For the same compound, the “MIC90 MABA Rel to RMP” value [5] was 0.12, the MIC ([5]; Mycobacterium tuberculosis, MTB H37Rv ATCC 27294, microplate Alamar Blue assay, lowest concentration giving ≥90% reduction in fluorescence, read-out: MIC90 MABA) was 0.005 µM and the “effectiveness versus rifampin control at 15 mg/kg in the same vehicle” value ([6]; 100 mg/kg PO) was “at least equal in effectiveness”. The CFU/Mouse [6, 17] was 4,029, the IC50 ([7]; Chlorocebus sabaeus, Vero) was greater than 10000 nM and the “MBC better than that of rifampin” value [8] was roughly 5 fold. The “DPX2 Viability @ 6.25 μM” value ([9]; 6.25 μM, 24 h) was 113% and the “DPX2 Viability @ 25 μM” value ([9]; human) was 95%.

In the case of `CO[C@H]1/C=C/O[C@@]2(C)Oc3c(C)c(O)c4c(=O)c(c5oc6cc(N7CCN(C(=O)c8cccc(-c9ccccn9)c8)CC7)cc(OCc7ccc(CN8CCOCC8)cc7)c6nc-5c4c3C2=O)NC(=O)/C(C)=C\C=C\[C@H](C)[C@H](O)[C@@H](C)[C@@H](O)[C@@H](C)[C@H](OC(C)=O)[C@@H]1C` [Compound 17r, (7S,9E,11S,12R,13S,14R,15R,16R,17S,18S,19E,21Z)-2,15,17-trihydroxy-11-methoxy-3,7,12,14,16,18,22-heptamethyl-32-{[4-(morpholin-4-ylmethyl)phenyl]methoxy}-6,23,37-trioxo-30-(4-{[3-(pyridin-2-yl)phenyl]carbonyl}piperazin-1-yl)-8,27,38-trioxa-24,34-diazahexacyclo[23.11.1.1^4,7.0^5,36.0^26,35.0^28,33]octatriaconta-1,3,5(36)9,19,21,25,28,30,32,34-undecaen-13-yl acetate], the “MIC90 MABA Rel to RMP” value [5] is reported as 0.46, the MIC90 ([5]; MTB H37Rv ATCC 27294, microplate Alamar Blue assay, lowest concentration giving ≥90% reduction in fluorescence) is reported as 0.023 µM and the IC50 [7] is reported as greater than 10000 nM. For the same compound, the “DPX2 Viability @ 6.25 μM” value [9] was 105%, the “DPX2 Viability @ 25 μM” value [9] was 94% and the “hPXR Fold Act. (lucif) @ 6.25 μM” value [10] was 1 fold. For the same compound, the “hPXR Fold Act. (lucif) @ 25 μM” value [10] was 1 fold and the IC50 [11] was 9.8 nM.

For `CO[C@H]1/C=C/O[C@@]2(C)Oc3c(C)c(O)c4c(O)c(c(/C=N/N5CCN(C6CCCC6)CC5)c(O)c4c3C2=O)NC(=O)/C(C)=C\C=C\[C@H](C)[C@H](O)[C@@H](C)[C@@H](O)[C@@H](C)[C@H](OC(C)=O)[C@@H]1C` [RFP, rifapentine, reference compound], the “hPXR Fold Act. (CYP 3A4) @ 6.25 μM” value ([12]; 6.25 μM) was 20.3 fold, the “hPXR Fold Act. (CYP 3A4) @ 25 μM” value ([12]; 25 μM) was 20.5 fold and the “DPX2 Viability @ 6.25 μM” value ([9]; human, 24 h, 6.25 μM) was 104%. The “DPX2 Viability @ 25 μM” value ([9]; human, 24 h, 25 μM) was 105%.

For `CO[C@H]1/C=C/O[C@@]2(C)Oc3c(C)c(O)c4c(=O)c(c5oc6cc(N7CCN(CC(C)C)CC7)cc(O)c6nc-5c4c3C2=O)NC(=O)/C(C)=C\C=C\[C@H](C)[C@H](O)[C@@H](C)[C@@H](O)[C@@H](C)[C@H](OC(C)=O)[C@@H]1C` [RLZ, rifalazil, reference compound], the “more potent than RMP against MTB H37Rv in vitro” value [13] is listed as 29 fold, the “MIC90 MABA Rel to RMP” value [5] is listed as 0.04 and the MIC90 [5, 18] is listed as 0.0011 µM (≈ 0.00104 µg/mL). The half-life [14] was 60 to 100 h, the hPXR activation [15] was “does not activate” and the “DPX2 Viability @ 6.25 μM” value ([9]; 6.25 μM, 24 h) was 108%. The “loss of cell viability” value ([9]; at 100 pt) was roughly 2 fold, the “DPX2 Viability @ 25 μM” value ([9]; human) was 96% and the “activation of hPXR” value [10] was “no activation”.

In the case of `CO[C@H]1/C=C/O[C@@]2(C)Oc3c(C)c(O)c4c(O)c(c(/C=N/N5CCN(C)CC5)c(O)c4c3C2=O)NC(=O)/C(C)=C\C=C\[C@H](C)[C@H](O)[C@@H](C)[C@@H](O)[C@@H](C)[C@H](OC(C)=O)[C@@H]1C` [RMP, rifampin, reference compound], the “MIC90 MABA Rel to RMP” value ([5]; MABA MIC90 relative to rifampin (RMP = 1)) is reported as 1, the MIC90 [5, 18] is reported as 0.027 µM (≈ 0.0222 µg/mL) and the CFU/Mouse ([6]; 15 mg/kg QD, CMC-Tween vehicle) is reported as 857. For the same compound, the CFU/Mouse ([6]; 15 mg/kg QD, PEG-water vehicle) was 8,443, the IC50 ([7]; Chlorocebus sabaeus, Vero) was greater than 100000 nM and the “MBC99 Day 7 (CFU Assay) MBC99 Rel to RMP” value ([8]; CFU Assay MBC99 relative to rifampin (RMP = 1)) was 1. The MBC ([8]; Mycobacterium tuberculosis, 168 h, Day 7, M. tuberculosis H37Rv, ≥99% reduction in colony forming units, read-out: MBC99 Day 7 (CFU Assay) MBC99) was 0.13 µM (≈ 0.107 µg/mL) and the “adverse effects noted in the mice” value [16] was “no adverse effects”.
